From US7645760B2, “1-(4-Benzyl-piperazin-1-yl)-3-phenyl-propenone derivatives” (Novartis AG., priority 2002, dated 2010)

C[C@@H]1CN(Cc2ccc(F)cc2)CCN1C(=O)/C=C/c1ccc(Cl)cc1NC(=O)N1CCNC1=O [Example 11, 2-Oxo-imidazolidine-1-carboxylic acid (5-Chloro-2-[(E)-3-[(R)-4-(4-fluoro-benzyl)-2-methyl-piperazin-1-yl]-3-oxo-propenyl]-phenyl)-amide]
melting point: 275 to 277 °C
